In patent US8552004B2, “Chemical compounds” (AstraZeneca AB, priority 2010, dated 2013):
Values joined by “and” are separate entries in the source; they are usually repeats but may differ in a detail not shown here. Identical values can stand only once. Like-named read-outs stand apart in the source and are kept apart here.

Experiments:
ATR [1] = target: T1, ATR (Homo sapiens (Human), UniProt Q13535); experiment: Enzyme Assay - ATR (Test (a)); format: biochemical; conditions: ATR from HeLa nuclear extract, GST-p53N66 substrate, 3 μM ATP, arithmetic mean
Method: ATR-antibody complexes were isolated from nuclear extract by incubating with protein A-Sepharose beads (Sigma, #P3476) for 1 hour and then through centrifugation to recover the beads. […] After 10 minutes with gentle shaking, ATP was added to a final concentration of 3 μM and the reaction continued at 37° C. for an additional 1 hour. […] Enhanced chemiluminescence solution (NEN, Boston, Mass.) was used to produce a signal and chemiluminescent detection was carried out via a TopCount (Packard, Meriden, Conn.) plate reader.

ATR [2] = target: T1, ATR; experiment: Cellular Assay - ATR, phosphorylation of Chk1 (Ser 345) in HT29 cells after 4NQO (Test (b)); format: cell-based; conditions: cell assay Test (b); pChk1 Ser345 in HT29 cells, 3 μM 4NQO; arithmetic mean
From the text: ATM and ATR have distinct and overlapping responses to DNA damage. They must participate together and responses must be co-ordinated. Both pathways may be activated by ionising radiation, however only ATR is activated by UV. Since UV treatment is not practical for use in a high throughput cell assay, the UV mimetic 4NQ0 (Sigma) was chosen to activate the ATR DNA damage response pathway.
Chk1, a downstream protein kinase of ATR, plays a key role in DNA damage checkpoint control. Activation of Chk1 involves phosphorylation of Ser317 and Ser345 (regarded as the preferential target for phosphorylation/activation by ATR). […] Compounds dose ranges were created by diluting in 100% DMSO and then further into assay media (EMEM, 10% FCS, 1% glutamine) using a Labcyte Echo Acoustic dispensing instrument. Cells were plated in 384 well Costar plates at 9×10^4 cells per ml in 40 μL EMEM, 10% FCS, 1% glutamine and grown for 24 hrs. Following addition of compound the cells were incubated for 60 minutes. A final concentration of 3 μM 4NQ0 (prepared in 100% DMSO) was then added using the Labcyte Echo and the cells incubated for a further 60mins. The cells are then fixed by adding 40 μL 3.7% v/v formaldehyde solution for 20 minutes. After removal of fix, cells were washed with PBS and permeabilised in 40 μL of PBS containing 0.1% Triton™ X-100. Cells are then washed and 15 μl primary antibody solution (pChk1 Ser345) added and the plates incubated at 4° C. overnight. […] The plates are washed and left in 40 μl PBS. Plates were then read on an ArrayS can Vti instrument to determine staining intensities, and dose responses were obtained and used to determine the IC50 values for the compounds.

HT29 cells = experiment: Cellular SRB assay, potentiation of carboplatin (Test (c)); format: cell-based, human; conditions: for PF50: HT29
Method: (c) Cellular—SRB Assay The potentiation factor (PF50) for compounds is a measure of the fold increase in effect of a chemotherapeutic agent, when used in combination with an ATR inhibitor. Specifically, this is calculated as a ratio of the IC50 of control cell growth in the presence of a chemotherapeutic agent, typically carboplatin, divided by the IC50 of cell growth in the presence of this agent and the ATR inhibitor of interest. For this purpose, HT29 cells were seeded at the appropriate density to ensure exponential growth throughout the time of the assay (typically 1000-1500 cells) in each well of a 96-well plate, in a volume of 80 μl and incubated overnight at 37° C. Subsequently, cells were dosed with either DMSO vehicle, or treated with test compounds at fixed concentrations (typically 1, 0.3 & 0.1 μM). Following a one hour incubation at 37° C., the cells were further treated with a 10 point dose response of the chemotherapeutic agent, based on it's known sensitivity (typically 30-0.001 ug/ml for carboplatin). Cells were left to grow for 5 days at 37° C., after which time cell growth was assessed using the sulforhodamine B (SRB) assay (Skehan, P et al, 1990 New colorimetric cytotoxic assay for anticancer-drug screening. J. Natl. Cancer Inst. 82, 1107-1112.). Specifically, the media was removed and cells fixed with 100 μl of ice cold 10% (w/v) trichloroacetic acid. The plates were then incubated at 4° C. for 20 minutes prior to washing 4 times with water. Each well was then stained with 100 μL of 0.4% (w/v) SRB in 1% acetic acid for 20 minutes before a further 4 washes with 1% acetic acid. Plates were then dried for 2 hours at room temperature and the dye was solubilized by the addition of 100 μL Tris Base pH 8.5 into each well. Plates were shaken before measuring optical density at 564 nm (OD564). In order to calculate the PF50, the OD564 values obtained for the dose-response curve of chemotherapeutic agent were expressed as a percentage of the value obtained from cells treated with vehicle alone. Similarly, to act as a control for inclusion of the ATR inhibitor, values from the chemotherapeutic agent tested in combination with a fixed ATR inhibitor concentration were expressed as a percentage of the value obtained from cells treated with the corresponding concentration of ATR inhibitor alone. From these internally-controlled curves, IC50 values were calculated and the PF50 was determined as the ratio of these values, as described above. Compounds are compared using the PF50 value at concentrations of ATR inhibitor that show minimal growth inhibition on their own. IC50 values were calculated with XLfit (IDBS, Surrey UK) using the dose response, 4 parameter logistic model #203. Top (max) and bottom (min) curve fitting was free and not locked to 100% to 0% respectively.

[3] = potentiation factor of Carboplatin at 0.03 uM ATR inhibitor
[4] = potentiation factor of Carboplatin at 0.1 uM ATR inhibitor
[5] = potentiation factor of Carboplatin at 0.3 uM ATR inhibitor
[6] = Homo sapiens, HT-29, HT29 cell growth, IC50 of Carboplatin + 0.03 uM ATR inhibitor, read-out: IC50
[7] = Homo sapiens, HT-29, HT29 cell growth, IC50 of Carboplatin + 0.1 uM ATR inhibitor, read-out: IC50
[8] = Homo sapiens, HT-29, HT29 cell growth, IC50 of Carboplatin + 0.3 uM ATR inhibitor, read-out: IC50

T1 sequence (Q13535 whole entry): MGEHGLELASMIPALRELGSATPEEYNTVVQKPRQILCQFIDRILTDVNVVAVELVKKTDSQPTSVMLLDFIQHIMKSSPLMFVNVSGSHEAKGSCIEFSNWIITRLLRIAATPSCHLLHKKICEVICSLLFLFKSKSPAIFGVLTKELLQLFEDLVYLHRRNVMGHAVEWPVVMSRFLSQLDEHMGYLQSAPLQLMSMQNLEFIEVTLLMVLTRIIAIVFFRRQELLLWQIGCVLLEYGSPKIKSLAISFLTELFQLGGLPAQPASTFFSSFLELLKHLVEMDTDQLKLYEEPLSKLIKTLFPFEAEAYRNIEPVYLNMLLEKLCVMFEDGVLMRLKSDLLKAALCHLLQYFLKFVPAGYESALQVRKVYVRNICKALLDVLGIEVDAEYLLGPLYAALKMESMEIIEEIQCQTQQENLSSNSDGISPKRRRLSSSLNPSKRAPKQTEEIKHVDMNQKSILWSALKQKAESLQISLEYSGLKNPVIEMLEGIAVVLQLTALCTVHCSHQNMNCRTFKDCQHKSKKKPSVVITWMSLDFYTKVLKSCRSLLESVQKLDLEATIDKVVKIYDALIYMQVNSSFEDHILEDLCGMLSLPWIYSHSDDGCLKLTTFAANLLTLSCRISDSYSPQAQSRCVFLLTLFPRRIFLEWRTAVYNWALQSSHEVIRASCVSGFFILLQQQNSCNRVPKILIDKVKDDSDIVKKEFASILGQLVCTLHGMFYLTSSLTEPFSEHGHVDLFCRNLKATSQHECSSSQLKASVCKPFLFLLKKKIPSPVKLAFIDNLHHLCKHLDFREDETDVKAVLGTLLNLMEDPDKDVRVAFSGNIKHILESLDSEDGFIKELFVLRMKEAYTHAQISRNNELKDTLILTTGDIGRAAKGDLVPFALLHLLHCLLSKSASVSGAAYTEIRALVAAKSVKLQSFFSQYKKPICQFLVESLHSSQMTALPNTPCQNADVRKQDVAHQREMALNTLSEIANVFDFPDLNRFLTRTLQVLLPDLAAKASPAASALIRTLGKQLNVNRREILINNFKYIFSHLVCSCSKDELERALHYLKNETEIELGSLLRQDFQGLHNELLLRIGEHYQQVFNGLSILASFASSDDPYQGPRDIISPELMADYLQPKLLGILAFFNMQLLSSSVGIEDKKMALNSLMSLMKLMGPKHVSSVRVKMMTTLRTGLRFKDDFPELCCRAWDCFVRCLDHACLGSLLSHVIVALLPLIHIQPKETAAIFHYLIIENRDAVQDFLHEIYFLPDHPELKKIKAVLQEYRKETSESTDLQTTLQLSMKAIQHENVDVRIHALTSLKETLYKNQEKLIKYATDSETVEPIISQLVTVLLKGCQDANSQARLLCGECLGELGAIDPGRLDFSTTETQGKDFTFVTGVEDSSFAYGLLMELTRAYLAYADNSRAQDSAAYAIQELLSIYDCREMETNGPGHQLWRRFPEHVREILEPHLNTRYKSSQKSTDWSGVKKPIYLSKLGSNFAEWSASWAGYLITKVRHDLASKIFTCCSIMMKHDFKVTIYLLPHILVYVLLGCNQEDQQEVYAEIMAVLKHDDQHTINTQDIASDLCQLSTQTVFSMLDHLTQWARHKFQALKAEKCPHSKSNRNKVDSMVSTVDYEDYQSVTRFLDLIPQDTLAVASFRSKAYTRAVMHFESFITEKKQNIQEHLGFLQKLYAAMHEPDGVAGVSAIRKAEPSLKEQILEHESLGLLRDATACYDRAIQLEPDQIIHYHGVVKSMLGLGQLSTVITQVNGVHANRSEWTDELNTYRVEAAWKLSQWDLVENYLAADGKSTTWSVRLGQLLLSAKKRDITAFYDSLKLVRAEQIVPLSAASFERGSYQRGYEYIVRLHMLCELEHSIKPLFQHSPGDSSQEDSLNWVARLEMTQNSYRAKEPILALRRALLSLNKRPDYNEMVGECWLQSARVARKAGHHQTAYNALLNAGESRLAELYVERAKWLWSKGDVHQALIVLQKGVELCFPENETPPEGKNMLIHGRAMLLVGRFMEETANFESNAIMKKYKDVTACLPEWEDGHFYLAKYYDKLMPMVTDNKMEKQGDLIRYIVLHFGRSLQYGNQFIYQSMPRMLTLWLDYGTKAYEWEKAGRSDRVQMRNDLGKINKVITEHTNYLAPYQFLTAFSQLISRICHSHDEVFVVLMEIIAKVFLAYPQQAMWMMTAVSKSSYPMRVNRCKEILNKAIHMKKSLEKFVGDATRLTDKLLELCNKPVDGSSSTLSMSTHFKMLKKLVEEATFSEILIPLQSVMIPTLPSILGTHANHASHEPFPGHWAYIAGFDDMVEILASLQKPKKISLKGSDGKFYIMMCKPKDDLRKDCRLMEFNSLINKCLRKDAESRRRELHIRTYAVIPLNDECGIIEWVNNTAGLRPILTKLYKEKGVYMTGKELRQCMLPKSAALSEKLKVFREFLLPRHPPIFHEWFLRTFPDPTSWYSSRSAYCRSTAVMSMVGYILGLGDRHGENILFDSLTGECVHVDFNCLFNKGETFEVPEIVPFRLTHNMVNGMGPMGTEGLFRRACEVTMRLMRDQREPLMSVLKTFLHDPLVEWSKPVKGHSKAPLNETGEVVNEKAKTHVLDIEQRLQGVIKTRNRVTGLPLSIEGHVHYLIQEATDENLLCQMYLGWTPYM
T1 sequence (Q8WXE1 whole entry partner): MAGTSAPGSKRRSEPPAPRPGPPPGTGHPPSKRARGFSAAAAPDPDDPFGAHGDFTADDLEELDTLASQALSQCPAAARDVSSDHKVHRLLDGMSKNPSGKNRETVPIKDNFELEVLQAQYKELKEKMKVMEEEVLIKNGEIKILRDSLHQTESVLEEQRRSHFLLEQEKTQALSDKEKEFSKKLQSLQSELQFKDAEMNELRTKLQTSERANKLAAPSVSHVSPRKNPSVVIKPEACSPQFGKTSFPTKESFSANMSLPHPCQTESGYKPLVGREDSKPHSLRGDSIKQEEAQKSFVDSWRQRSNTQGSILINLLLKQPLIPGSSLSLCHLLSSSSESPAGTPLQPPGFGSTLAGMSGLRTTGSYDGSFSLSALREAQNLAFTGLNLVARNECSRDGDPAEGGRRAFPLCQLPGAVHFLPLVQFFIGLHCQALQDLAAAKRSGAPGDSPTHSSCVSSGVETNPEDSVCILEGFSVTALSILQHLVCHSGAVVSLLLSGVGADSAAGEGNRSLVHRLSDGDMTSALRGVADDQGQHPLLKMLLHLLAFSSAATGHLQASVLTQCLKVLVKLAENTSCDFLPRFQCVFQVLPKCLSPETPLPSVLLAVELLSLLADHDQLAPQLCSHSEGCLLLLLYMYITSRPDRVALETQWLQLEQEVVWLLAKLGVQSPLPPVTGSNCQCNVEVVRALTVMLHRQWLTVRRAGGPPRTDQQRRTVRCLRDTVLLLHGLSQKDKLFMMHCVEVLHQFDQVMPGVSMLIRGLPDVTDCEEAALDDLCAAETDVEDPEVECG

IC50 (ATR [1]) | IC50 (ATR [2]) | IC50 (HT29 cells; [6]) | IC50 (HT29 cells; [7]) | IC50 (HT29 cells; [8]) | Structure (SMILES) | PF50 (HT29 cells; [3]) | PF50 (HT29 cells; [4]) | PF50 (HT29 cells; [5]) | IC50 (HT29 cells; HT29 cell growth, Carboplatin alone, 5 days, SRB)
0.034 µM | 0.581 µM |  |  |  | C[C@@H]1COCCN1c1cc(C[S@](C)(=N)=O)nc(-c2ccnc3[nH]ccc23)n1 [Example 1.01, 4-{4-[(3R)-3-Methylmorpholin-4-yl]-6-[((R)—S-methylsulfonimidoyl)methyl]pyrimidin-2-yl}-1H-pyrrolo[2,3-b]pyridine] |  |  |  | 
 |  | 5.74 µg/mL | 2.01 µg/mL | 0.63 µg/mL | CNc1nc2ccccc2n1-c1nc(N2CCOC[C@H]2C)cc(C2([S@](C)(=N)=O)CC2)n1 [Example 2.03, N-Methyl-1-{4-[(3R)-3-methylmorpholin-4-yl]-6-[1-((R)—S-methylsulfonimidoyl)cyclopropyl]pyrimidin-2-yl}-1H-benzimidazol-2-amine] | 2.057 | 5.887 | 18.721 | 
 |  | 9.39 µg/mL | 6.37 µg/mL | 2.99 µg/mL | C[C@@H]1COCCN1c1cc(C2([S@](C)(=N)=O)CC2)nc(-c2ccnc3[nH]ccc23)n1 [Example 2.02, 4-{4-[(3R)-3-Methylmorpholin-4-yl]-6-[1-((R)—S-methylsulfonimidoyl)cyclopropyl]pyrimidin-2-yl}-1H-pyrrolo[2,3-b]pyridine] | 1.331 | 1.966 | 4.211 | 
 |  |  |  |  | N.N.O=C([O-])C1(C(=O)[O-])CCC1.[Pt+2] [Carboplatin, reference compound] |  |  |  | 12.519 µg/mL and 11.798 µg/mL
